Results as given in patent EP3046573B1, “AMYLIN ANALOGUES” (Zealand Pharma A/S, priority 2013, dated 2015).
pEC50: −log10 of the molar value. Like-named read-outs stand apart in the source and are kept apart here. Numbered stars: 1 amine (or outer) side, 2 acyl side, 3 side chain; on linkers, the order of the positions; unused ones are H or OH. Bridge positions count the residues as written; N and C are the ends. Square brackets hold non-standard residues; d marks the D form. Peptide text beside a SMILES is read from it. * marks the point of attachment. C20 diacid = O=C(O)CCCCCCCCCCCCCCCCCCC(=O)*; γGlu = O=C(O)[C@H](CCC(=O)[*:2])N[*:1]; NMeI = CC[C@H](C)[C@H](NC)C(=O)O; Sar = CNCC(=O)O

Molecular target: T1, human calcitonin receptor (hCTR2) (Homo sapiens, UniProt P30988)
T1 construct: expressed in transfected cells
T1 sequence (P30988 25-474): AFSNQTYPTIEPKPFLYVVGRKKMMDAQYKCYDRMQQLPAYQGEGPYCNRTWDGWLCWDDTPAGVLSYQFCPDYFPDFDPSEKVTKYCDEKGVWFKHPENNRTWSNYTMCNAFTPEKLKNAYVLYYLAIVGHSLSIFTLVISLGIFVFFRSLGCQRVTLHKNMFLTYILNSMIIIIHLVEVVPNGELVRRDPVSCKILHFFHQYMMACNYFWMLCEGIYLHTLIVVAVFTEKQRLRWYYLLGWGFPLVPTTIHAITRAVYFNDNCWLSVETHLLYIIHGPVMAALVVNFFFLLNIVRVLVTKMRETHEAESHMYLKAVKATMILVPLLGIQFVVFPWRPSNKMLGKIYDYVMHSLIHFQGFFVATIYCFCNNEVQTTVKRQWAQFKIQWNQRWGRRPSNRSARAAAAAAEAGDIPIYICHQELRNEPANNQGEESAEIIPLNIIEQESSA
Experiment: hCTR2 assay: induction of cAMP (AlphaScreen cAMP Assay kit) in COS7 cells expressing hCTR2
Assay type: cell-based
Source text: The cell line COS7, originating from African Green Monkey kidney fibroblast cells, was used for establishment of the stable cell lines described below. The COS7 cellular background was used due to it being RAMP naive, and as such it provides the best available system for testing of the monomeric hCTR and different heterodimeric amylin receptor subtypes functionally generated by introduction of the individual RAMPs.
A cell line expressing the human calcitonin receptor (hCTR2) was generated in the COS7 cellular background as stable clones. In brief, hCTR2 (GI: 4502547) was amplified by PCR using primers encoding terminal restriction sites for subcloning. The 5'-end primers additionally encoded a near Kozak consensus sequence to ensure efficient translation. The fidelity of the DNA encoding the receptor was confirmed by DNA sequencing. The PCR products encoding the receptor were subcloned into a mammalian expression vector containing a neomycin (G418) resistance marker. The mammalian expression vector encoding the receptor was transfected into COS7 cells by a standard liposome transfection method. 48 hours post-transfection, cells were seeded for limited dilution cloning and selected with 1 mg/ml G418 in the culture medium. After 3 weeks, surviving colonies of hCTR2-expressing cells were picked, propagated and tested in the amylin efficacy assay as described in Example 3 below. One hCTR2-expressing clone was chosen for compound profiling.
In vitro activity of test peptides at the hCTR2 and hAMYR3 receptors was assessed by measuring the induction of cAMP following stimulation of the receptor by pramlintide or peptides of the invention using the AlphaScreen® cAMP Assay kit from Perkin-Elmer.
Briefly, COS7 cells expressing hCTR2 (see Example 2, above) were seeded at 30-40,000 cells per well in 96-well microtiter plates coated with 0.01 % poly-L-lysine, and grown for 1 day in culture in 100 µl growth medium [DMEM, 10% FCS, Penicillin (100 IU/ml), Streptomycin (100 µg/ml)]. On the day of analysis, growth medium was removed and the cells were washed once with 200 µl Tyrode buffer [Tyrode's Salts (9.6 g/l), 10 mM HEPES, pH 7.4]. Cells were incubated in 100 µl Tyrode buffer containing increasing concentrations of test peptides, 100 µM IBMX and 0.1% casein for 15 min at 37° C. The reaction was stopped by carefully decanting off the compound/buffer medium and replacing it with lysis/detection buffer (80 µl 0.1 % w/v BSA, 5 mM HEPES, 0.3 % v/v Tween-20 in deionized water). After incubation at room temperature for 10 min., the cAMP content of the resulting cell lysate was estimated according to the AlphaScreen® cAMP Assay manufacturer's instructions. EC50 values and relative efficacy values (in %) compared to reference peptide (Pramlintide) were estimated by computer-aided curve fitting using the 4-parameter logistic (4PL) non-linear model.
The in vitro activity results (expressed as EC50 values) for peptides of the invention and for Pramlintide (reference peptide) are summarized in Table 2, below.

[1] = cAMP induction in COS7 cells expressing hCTR2, average of a minimum of 3 determinations, read-out: hCTR2 EC50

Row | pEC50 [1] | SMILES | pEC50
1 | 9.85 | CC(C)C[C@H](NC(=O)[C@H](C)NC(=O)CN(C)C(=O)[C@H](Cc1ccccc1)NC(=O)[C@H](CC(N)=O)NC(=O)[C@H](CC(N)=O)NC(=O)[C@H](CO)NC(=O)[C@H](CO)NC(=O)[C@H](Cc1c[nH]cn1)NC(=O)[C@H](Cc1c[nH]cn1)NC(=O)[C@H](CC(C)C)NC(=O)[C@H](Cc1ccccc1)NC(=O)[C@H](CCC(=O)O)NC(=O)[C@H](C)NC(=O)[C@H](CC(C)C)NC(=O)[C@H](CCCNC(=N)N)NC(=O)[C@H](CCC(N)=O)NC(=O)[C@@H](NC(=O)[C@H](C)NC(=O)[C@@H]1CSSC[C@H](NC(=O)[C@H](CCCNC(=N)N)NC(=O)CC[C@H](NC(=O)CCCCCCCCCCCCCCCCCCC(=O)O)C(=O)O)C(=O)N[C@@H](CC(N)=O)C(=O)N[C@@H]([C@@H](C)O)C(=O)N[C@@H](C)C(=O)N[C@@H]([C@@H](C)O)C(=O)N1)[C@@H](C)O)C(=O)N[C@@H](CO)C(=O)N[C@@H](CO)C(=O)N[C@H](C(=O)N[C@@H](CC(N)=O)C(=O)N[C@H](C(=O)NCC(=O)N[C@@H](CO)C(=O)N[C@@H](CC(N)=O)C(=O)N[C@H](C(=O)N1CCC[C@H]1C(N)=O)[C@@H](C)O)C(C)C)[C@@H](C)O [Compound 27, [19CD]-isoGlu-RC()NTATC()ATQRLAEFLHHSSNNF-Gly(Me)-ALSSTNVGSNTP-NH2] ({C20 diacid-γGlu}-RCNTATCATQRLAEFLHHSSNNF[Sar]ALSSTNVGSNTP-NH2; disulfide 2-7) | –
2 | 9.25 | CC[C@H](C)[C@@H](C(=O)N[C@@H](CC(C)C)C(=O)N[C@@H](CO)C(=O)N[C@@H](CO)C(=O)N[C@H](C(=O)N[C@@H](CC(N)=O)C(=O)N[C@H](C(=O)NCC(=O)N[C@@H](CO)C(=O)N[C@@H](CC(N)=O)C(=O)N[C@H](C(=O)N1CCC[C@H]1C(N)=O)[C@@H](C)O)C(C)C)[C@@H](C)O)N(C)C(=O)CN(C)C(=O)[C@H](Cc1ccccc1)NC(=O)[C@H](CC(N)=O)NC(=O)[C@H](CC(N)=O)NC(=O)[C@H](CO)NC(=O)[C@@H](CO)NC(=O)[C@H](Cc1c[nH]cn1)NC(=O)[C@H](Cc1c[nH]cn1)NC(=O)[C@H](CC(C)C)NC(=O)[C@H](Cc1ccccc1)NC(=O)[C@H](CCC(=O)O)NC(=O)[C@H](C)NC(=O)[C@H](CC(C)C)NC(=O)[C@H](CCCNC(=N)N)NC(=O)[C@H](CCC(N)=O)NC(=O)[C@@H](NC(=O)[C@H](C)NC(=O)[C@@H]1CSSC[C@H](NC(=O)[C@H](CCCNC(=N)N)NC(=O)CC[C@H](NC(=O)CCCCCCCCCCCCCCCCCCC(=O)O)C(=O)O)C(=O)N[C@@H](CC(N)=O)C(=O)N[C@@H]([C@@H](C)O)C(=O)N[C@@H](C)C(=O)N[C@@H]([C@@H](C)O)C(=O)N1)[C@@H](C)O [Compound 30, [19CD]-isoGlu-RC()NTATC()ATQRLAEFLHH-DSer-SNNF-Gly(Me)-Ile(Me)-LSSTNVGSNTP-NH2] ({C20 diacid-γGlu}-RCNTATCATQRLAEFLHH[dS]SNNF[Sar][NMeI]LSSTNVGSNTP-NH2; disulfide 2-7) | –
3 | 9.59 | CC[C@H](C)[C@@H](C(=O)N[C@@H](CC(C)C)C(=O)N[C@@H](CO)C(=O)N[C@@H](CO)C(=O)N[C@H](C(=O)N[C@@H](CC(N)=O)C(=O)N[C@H](C(=O)NCC(=O)N[C@@H](CO)C(=O)N[C@@H](CC(N)=O)C(=O)N[C@H](C(=O)N1CCC[C@H]1C(N)=O)[C@@H](C)O)C(C)C)[C@@H](C)O)N(C)C(=O)CN(C)C(=O)[C@H](Cc1ccccc1)NC(=O)[C@H](CC(N)=O)NC(=O)[C@H](CC(N)=O)NC(=O)[C@@H](CO)NC(=O)[C@H](CO)NC(=O)[C@H](Cc1c[nH]cn1)NC(=O)[C@H](Cc1c[nH]cn1)NC(=O)[C@H](CC(C)C)NC(=O)[C@H](Cc1ccccc1)NC(=O)[C@H](CCC(=O)O)NC(=O)[C@H](C)NC(=O)[C@H](CC(C)C)NC(=O)[C@H](CCCNC(=N)N)NC(=O)[C@H](CCC(N)=O)NC(=O)[C@@H](NC(=O)[C@H](C)NC(=O)[C@@H]1CSSC[C@H](NC(=O)[C@H](CCCNC(=N)N)NC(=O)CC[C@H](NC(=O)CCCCCCCCCCCCCCCCCCC(=O)O)C(=O)O)C(=O)N[C@@H](CC(N)=O)C(=O)N[C@@H]([C@@H](C)O)C(=O)N[C@@H](C)C(=O)N[C@@H]([C@@H](C)O)C(=O)N1)[C@@H](C)O [Compound 34, [19CD]-isoGlu-RC()NTATC()ATQRLAEFLHHS-DSer-NNF-Gly(Me)-Ile(Me)-LSSTNVGSNTP-NH2] ({C20 diacid-γGlu}-RCNTATCATQRLAEFLHHS[dS]NNF[Sar][NMeI]LSSTNVGSNTP-NH2; disulfide 2-7) | –

Further lines, the molecule ahead of its results:

Row | SMILES | pEC50 [1] | pEC50
4 | CC[C@H](C)[C@@H](C(=O)N[C@@H](CC(C)C)C(=O)N[C@@H](CO)C(=O)N[C@@H](CO)C(=O)N[C@H](C(=O)N[C@@H](CC(N)=O)C(=O)N[C@H](C(=O)NCC(=O)N[C@@H](CO)C(=O)N[C@@H](CC(N)=O)C(=O)N[C@H](C(=O)N1CCC[C@H]1C(N)=O)[C@@H](C)O)C(C)C)[C@@H](C)O)N(C)C(=O)[C@H](C)NC(=O)[C@@H](C)NC(=O)[C@H](Cc1ccccc1)NC(=O)[C@H](CC(N)=O)NC(=O)[C@H](CC(N)=O)NC(=O)[C@H](CO)NC(=O)[C@H](CO)NC(=O)[C@H](Cc1c[nH]cn1)NC(=O)[C@H](Cc1c[nH]cn1)NC(=O)[C@H](CC(C)C)NC(=O)[C@H](Cc1ccccc1)NC(=O)[C@H](CCC(=O)O)NC(=O)[C@H](C)NC(=O)[C@H](CC(C)C)NC(=O)[C@H](CCCNC(=N)N)NC(=O)[C@H](CCC(N)=O)NC(=O)[C@@H](NC(=O)[C@H](C)NC(=O)[C@@H]1CSSC[C@H](NC(=O)[C@H](CCCNC(=N)N)NC(=O)CC[C@H](NC(=O)CCCCCCCCCCCCCCCCCCC(=O)O)C(=O)O)C(=O)N[C@@H](CC(N)=O)C(=O)N[C@@H]([C@@H](C)O)C(=O)N[C@@H](C)C(=O)N[C@@H]([C@@H](C)O)C(=O)N1)[C@@H](C)O [Compound 17, [19CD]-isoGlu-RC()NTATC()ATQRLAEFLHHSSNNF-DAla-A-Ile(Me)-LSSTNVGSNTP-NH2] ({C20 diacid-γGlu}-RCNTATCATQRLAEFLHHSSNNF[dA]A[NMeI]LSSTNVGSNTP-NH2; disulfide 2-7) | 10.03 | –
5 | CC[C@H](C)[C@@H](C(=O)N[C@@H](CC(C)C)C(=O)N[C@H](CO)C(=O)N[C@@H](CO)C(=O)N[C@H](C(=O)N[C@@H](CC(N)=O)C(=O)N[C@H](C(=O)NCC(=O)N[C@@H](CO)C(=O)N[C@@H](CC(N)=O)C(=O)N[C@H](C(=O)N1CCC[C@H]1C(N)=O)[C@@H](C)O)C(C)C)[C@@H](C)O)N(C)C(=O)[C@H](C)NC(=O)CN(C)C(=O)[C@H](Cc1ccccc1)NC(=O)[C@H](CC(N)=O)NC(=O)[C@H](CC(N)=O)NC(=O)[C@H](CO)NC(=O)[C@H](CO)NC(=O)[C@H](Cc1c[nH]cn1)NC(=O)[C@H](Cc1c[nH]cn1)NC(=O)[C@H](CC(C)C)NC(=O)[C@H](Cc1ccccc1)NC(=O)[C@H](CCC(=O)O)NC(=O)[C@H](C)NC(=O)[C@H](CC(C)C)NC(=O)[C@H](CCCNC(=N)N)NC(=O)[C@H](CCC(N)=O)NC(=O)[C@@H](NC(=O)[C@H](C)NC(=O)[C@@H]1CSSC[C@H](NC(=O)[C@H](CCCNC(=N)N)NC(=O)CC[C@H](NC(=O)CCCCCCCCCCCCCCCCCCC(=O)O)C(=O)O)C(=O)N[C@@H](CC(N)=O)C(=O)N[C@@H]([C@@H](C)O)C(=O)N[C@@H](C)C(=O)N[C@@H]([C@@H](C)O)C(=O)N1)[C@@H](C)O [Compound 23, [19CD]-isoGlu-RC()NTATC()ATQRLAEFLHHSSNNF-Gly(Me)-A-Ile(Me)-L-DSer-STNVGSNTP-NH2] ({C20 diacid-γGlu}-RCNTATCATQRLAEFLHHSSNNF[Sar]A[NMeI]L[dS]STNVGSNTP-NH2; disulfide 2-7) | – | 10.13
